PMC11680018, “Study of Cytotoxicity of Spiro-Fused [3-Azabicyclo[3.1.0]hexane]oxindoles and Cyclopropa[a]pyrrolizidine-oxindoles Against Tumor Cell Lines” (Pharmaceuticals, 2024)
“And” between values parts separate entries of the source, which are not always exact repeats. Equal values may be shown once. Read-outs that look alike come from different tables or passages of the source.

Tests used:
[1] = tested on: acute T cell leukemia (Jurkat) cell line; assay: MTS cell proliferation assay, Jurkat; format: cell-based, human; conditions: for IC50: Homo sapiens, Jurkat, MTS; for SI (selectivity index) Jurkat: ratio of cytotoxicity PBMC / Jurkat, calculated at 72 h
Description: (§1) Cancer cell lines are valuable in vitro model systems that are widely used in cancer research and drug discovery. Their use is mainly linked to their possibility to provide for experimental purposes an unlimited source of biological material. Here, the 24 and 72 h in vitro MTS assay was used to determine the antiproliferative activity of synthesized spiro-fused cyclopropa[a]pyrrolizidine-2,3′-oxindoles and [3-azabicyclo[3.1.0]hexane]-oxindoles against human erythroleukemia (K562), acute T cell leukemia (Jurkat), cervical carcinoma (HeLa), melanoma (Sk-mel-2), breast cancer adenocarcinoma (MCF-7) as well as mouse colon carcinoma (CT26) cell lines. […] The full results of these investigations are presented in the Supporting Information Figures S1–S6. […] An evaluation of the cytotoxicity of the selected compounds towards normal cells (peripheral blood mononuclear cells) was performed additionally to understand their respective relative selectivities. The selectivity index was obtained using the ratio of measured cytotoxicity between the PBMC cells and each of the cancer cell lines, and the results are presented in Table 3.
(§2) The human erythroleukemia (K-562), cervical carcinoma (HeLa) as well as mouse colon carcinoma (CT26) cell lines were obtained from the Bank of Cell Cultures of the Institute of Cytology of the Russian Academy of Sciences; the human melanoma (Sk-mel-2) cell line was obtained from the Bank of Cell Cultures of the Institute of Cytology and Genetics, Siberian Branch of the Russian Academy of Sciences. The acute T cell leukemia (Jurkat) cell line was obtained from the Bank of Cell Cultures of the Institute of Immunology of the Russian Academy of Medical Sciences. The peripheral blood mononuclear cells (PBMC) were isolated from the blood of healthy donors. K-562, Jurkat, MCF-7, PBMC and CT26 cells were grown on RPMI medium (Hyclone, GE Healthcare Life Sciences, Logan, UT, USA) supplemented with 10% (v/v) fetal bovine serum (Hyclone, GE Healthcare Life Sciences, Logan, UT, USA) and gentamicin (Sigma-Aldrich, St. Louis, MO, USA) at 37 °C in a humidified atmosphere with 5% CO2. HeLa and Sk-mel-2 cells were cultured with the same supplements and conditions in DMEM medium (Hyclone, GE Healthcare Life Sciences, Logan, UT, USA).
(§3) To evaluate the in vitro toxicity of the compounds synthesized, cells were seeded into 96-well plates at a density of 5 × 10^3 cells per well. On the next day, the tested compounds were added to the wells at concentrations ranging from 1 to 30 μg/mL, followed by incubation for 1 and 3 days. Cell proliferation was determined by adding 20 μL of MTS reagent (BioVision, Milpitas, CA, USA) stock solution per well. The plates were incubated for 2 h at 37 °C in a humidified, 5% CO2 atmosphere. The plates were then read at 495 nm using a plate spectrophotometer (Multiskan GO, Thermo Fisher Scientific, Waltham, MA, USA). All samples were measured in triplicate.

[2] = tested on: HeLa cells actin cytoskeleton; assay: Actin cytoskeleton staining, confocal microscopy, HeLa; format: cell-based, human; conditions: 10 μg/mL, 24 h; for HeLa cells with filopodia-like deformations: control cells 93%, lowest value over the compounds; for HeLa cells with granular actin distributed diffusely in the cytoplasm (stress fibers disappeared): maximum over the compounds
Description: It was found using confocal microscopy that incubation with spiro-fused [3-azabicyclo[3.1.0]hexane]oxindoles 4, 8, 17, 18, 22, 24 and cyclopropa[a]pyrrolizidine-2,3′-oxindole 2 led to significant changes in the HeLa cells’ actin cytoskeleton structure leading to the disappearance of stress fibers (granular actin was distributed diffusely in the cytoplasm in up to 38% of treated cells) and changes in the number of filopodia-like deformations (reduced from 93% in control cells to 64% after treatment). The impact on the Sk-mel-2 cells’ actin cytoskeleton structure was even greater: granular actin was distributed diffusely in the cytoplasm in up to 90% of treated cells while the number of filopodia-like deformations was reduced by up to 23%. Such changes in the cytoskeleton may indicate a change in the motor activity of cells, which may indicate a decrease in the ability of tumor cells to metastasize.
HeLa cells were seeded at a density of 2 × 10^5 cells per dish onto a petri dish with cover slips and incubated for 24 h. After that, cells were treated with chosen compounds (10 μg/mL) for 24 h. The medium was removed and cells were fixed with 4% paraformaldehyde (Sigma-Aldrich, St. Louis, MO, USA), washed three times with PBS, and permeabilized with 0.3% Triton-X100 (Sigma-Aldrich, St. Louis, MO, USA). The cells were rinsed three times with PBS. Actin filaments (microfilaments) were stained with rhodamine–phalloidin (Invitrogen, Carlsbad, CA, USA) at 37 °C for 15 min. The samples were rinsed three times with PBS, followed by embedding in Fluoroshield medium (Sigma-Aldrich, St. Louis, MO, USA). Cells were imaged using an Axio Observer Z1 confocal microscope (Carl Zeiss MicroImaging GmbH, Jena, Germany). In each experiment, at least 30 cells were imaged. Images were analyzed by a pathologist blinded to the treatment mode used for each group using ImageJ software, 1.52v.

[3] = tested on: mouse colon carcinoma (CT26) cell line; assay: MTS cell proliferation assay, CT26; format: cell-based; conditions: for IC50: Mus musculus, MTS; for SI (selectivity index) CT26: ratio of cytotoxicity PBMC / CT26, calculated at 72 h
Description: as §1, §2, §3

[4] = tested on: human erythroleukemia (K562) cell line; assay: MTS cell proliferation assay, K562; format: cell-based; conditions: for IC50: Homo sapiens, MTS; for SI (selectivity index) K562: ratio of cytotoxicity PBMC / K562, calculated at 72 h
Description: as §1, §2, §3

[5] = tested on: cervical carcinoma (HeLa) cell line; assay: MTS cell proliferation assay, HeLa; format: cell-based, human; conditions: for IC50: Homo sapiens, HeLa, MTS; for SI (selectivity index) HeLa: ratio of cytotoxicity PBMC / HeLa, calculated at 72 h
Description: as §1, §2, §3

[6] = tested on: peripheral blood mononuclear cells (PBMC); assay: MTS cytotoxicity towards normal cells, PBMC; format: cell-based; conditions: Homo sapiens
Description: as §1, §2, §3

[7] = tested on: breast cancer adenocarcinoma (MCF-7) cell line; assay: MTS cell proliferation assay, MCF-7; format: cell-based, human; conditions: for IC50: Homo sapiens, MTS; for SI (selectivity index) MCF-7: ratio of cytotoxicity PBMC / MCF-7, calculated at 72 h
Description: as §1, §2, §3

[8] = tested on: melanoma (Sk-mel-2) cell line; assay: MTS cell proliferation assay, Sk-mel-2; format: cell-based, human; conditions: for IC50: Homo sapiens, MTS; for SI (selectivity index) Sk-mel-2: ratio of cytotoxicity PBMC / Sk-mel-2, calculated at 72 h
Description: as §1, §2, §3

[9] = tested on: K562, Jurkat, HeLa, Sk-mel-2, MCF-7 and CT26 cell lines; assay: MTS cell proliferation assay, panel of cell lines (summary statements); format: cell-based
Description: as §1, §2, §3

[10] = read-out: IC50 Jurkat 24 h, 24 h
[11] = 72 h, read-out: IC50 Jurkat 72 h
[12] = read-out: IC50 CT26 24 h, CT26, 24 h
[13] = CT26, 72 h, read-out: IC50 CT26 72 h
[14] = read-out: IC50 K562 24 h, K562, 24 h
[15] = K562, 72 h, read-out: IC50 K562 72 h
[16] = MCF7, read-out: IC50 MCF-7 24 h, MCF-7, 24 h
[17] = MCF7, MCF-7, 72 h, read-out: IC50 MCF-7 72 h
[18] = read-out: IC50 Sk-mel-2 24 h, Sk-mel-2, 24 h
[19] = Sk-mel-2, 72 h, read-out: IC50 Sk-mel-2 72 h
[20] = 72 h, range over four cell lines and compounds, read-out: IC50 against the Jurkat, K-562, HeLa and Sk-mel-2 cell lines

COC(=O)C1C2(c3ccccc3)C(Cc3ccc(O)cc3)NC3(C(=O)Nc4ccccc43)C12c1ccccc1 (stereo not shown) [Compound 17]
IC50 [1, 10]: 12 ± 1 µM
IC50 [1, 11]: 8 ± 1 µM
SI (selectivity index) Jurkat [1]: 15
HeLa cells with filopodia-like deformations [2]: ≥ 64%
HeLa cells with granular actin distributed diffusely in the cytoplasm (stress fibers disappeared) [2]: up to 38%
IC50 [3, 12]: > 40 µM
IC50 [3, 13]: 23 ± 2 µM
SI (selectivity index) CT26 [3]: 5
IC50 [4, 14]: 35 ± 5 µM
IC50 [4, 15]: 14 ± 1 µM
SI (selectivity index) K562 [4]: 8
IC50 ([5]; read-out: IC50 HeLa 24 h, 24 h): 31 ± 2 µM
IC50 ([5]; 72 h, read-out: IC50 HeLa 72 h): 14 ± 2 µM
SI (selectivity index) HeLa [5]: 8
IC50 ([6]; 72 h, read-out: IC50 PBMC 72 h): 112 ± 9 µM
IC50 ([6]; read-out: IC50 PBMC 24 h, 24 h): 127 ± 16 µM
IC50 [7, 16]: > 40 µM
IC50 [7, 17]: > 40 µM
SI (selectivity index) MCF-7 [7]: 2
IC50 [8, 18]: > 40 µM
IC50 [8, 19]: 14 ± 2 µM
SI (selectivity index) Sk-mel-2 [8]: 8

NC(=O)CC1NC2(C(=O)Nc3ccccc32)C2(c3ccccc3)C(c3ccccc3)C12c1ccccc1 (stereo not shown) [Compound 18]
IC50 [1, 10]: 6 ± 1 µM
IC50 [1, 11]: 2 ± 1 µM
SI (selectivity index) Jurkat [1]: 6
HeLa cells with filopodia-like deformations [2]: ≥ 64%
HeLa cells with granular actin distributed diffusely in the cytoplasm (stress fibers disappeared) [2]: up to 38%
IC50 [3, 12]: 27 ± 2 µM
IC50 [3, 13]: 10 ± 1 µM
SI (selectivity index) CT26 [3]: 1
IC50 [4, 14]: 14 ± 2 µM
IC50 [4, 15]: 6 ± 1 µM
SI (selectivity index) K562 [4]: 2
IC50 ([5]; read-out: IC50 HeLa 24 h, 24 h): 23 ± 2 µM
IC50 ([5]; 72 h, read-out: IC50 HeLa 72 h): 10 ± 2 µM
SI (selectivity index) HeLa [5]: 1
IC50 ([6]; 72 h, read-out: IC50 PBMC 72 h): 12 ± 1 µM
IC50 ([6]; read-out: IC50 PBMC 24 h, 24 h): 29 ± 3 µM
IC50 [7, 16]: > 40 µM
IC50 [7, 17]: 14 ± 1 µM
SI (selectivity index) MCF-7 [7]: 1
IC50 [9, 20]: 2 to 10 µM
IC50 [8, 18]: 29 ± 2 µM
IC50 [8, 19]: 10 ± 1 µM
SI (selectivity index) Sk-mel-2 [8]: 1

CC(C)C1NC2(C(=O)Nc3ccccc32)C2(c3ccccc3)C(c3ccccc3)C12c1ccccc1 (stereo not shown) [Compound 8]
IC50 [1, 10]: 11 ± 1 µM
IC50 [1, 11]: 2 ± 1 µM
SI (selectivity index) Jurkat [1]: 22
HeLa cells with filopodia-like deformations [2]: ≥ 64%
HeLa cells with granular actin distributed diffusely in the cytoplasm (stress fibers disappeared) [2]: up to 38%
IC50 [3, 12]: > 40 µM
IC50 [3, 13]: 11 ± 1 µM
SI (selectivity index) CT26 [3]: 4
IC50 [4, 14]: 25 ± 1 µM
IC50 [4, 15]: 6 ± 1 µM
SI (selectivity index) K562 [4]: 7
IC50 ([5]; read-out: IC50 HeLa 24 h, 24 h): > 40 µM
IC50 ([5]; 72 h, read-out: IC50 HeLa 72 h): 8 ± 1 µM
SI (selectivity index) HeLa [5]: 6
IC50 ([6]; 72 h, read-out: IC50 PBMC 72 h): 47 ± 5 µM
IC50 ([6]; read-out: IC50 PBMC 24 h, 24 h): 83 ± 7 µM
IC50 [7, 16]: > 40 µM
IC50 [7, 17]: > 40 µM
SI (selectivity index) MCF-7 [7]: 1
IC50 [9, 20]: 2 to 10 µM
IC50 [8, 18]: 15 ± 1 µM
IC50 [8, 19]: 8 ± 1 µM
SI (selectivity index) Sk-mel-2 [8]: 6

O=C1Nc2ccc([N+](=O)[O-])cc2C12N1CCCC1C1(c3ccccc3)C(c3ccccc3)C12c1ccccc1 (stereo not shown) [Compound 2]
IC50 [1, 10]: 18 ± 2 µM
IC50 [1, 11]: 4 ± 1 µM
SI (selectivity index) Jurkat [1]: 22
HeLa cells with filopodia-like deformations [2]: ≥ 64%
HeLa cells with granular actin distributed diffusely in the cytoplasm (stress fibers disappeared) [2]: up to 38%
IC50 [3, 12]: > 40 µM
IC50 [3, 13]: 23 ± 2 µM
SI (selectivity index) CT26 [3]: 4
IC50 [4, 14]: 29 ± 2 µM
IC50 [4, 15]: 8 ± 1 µM
SI (selectivity index) K562 [4]: 11
IC50 ([5]; read-out: IC50 HeLa 24 h, 24 h): > 40 µM
IC50 ([5]; 72 h, read-out: IC50 HeLa 72 h): 12 ± 1 µM
SI (selectivity index) HeLa [5]: 7
IC50 ([6]; 72 h, read-out: IC50 PBMC 72 h): 84 ± 8 µM
IC50 ([6]; read-out: IC50 PBMC 24 h, 24 h): 121 ± 8 µM
IC50 [7, 16]: > 40 µM
IC50 [7, 17]: > 40 µM
SI (selectivity index) MCF-7 [7]: 2
IC50 ([9]; range over cell lines, except for the breast cancer cell line, read-out: IC50 over the tested cell lines): 2 µg/mL to 12 µg/mL and 4 µM to 23 µM
IC50 [8, 18]: 14 ± 1 µM
IC50 [8, 19]: 12 ± 1 µM
SI (selectivity index) Sk-mel-2 [8]: 7
